Results: ChEMBL document CHEMBL1201862, “PubChem BioAssay data set” (2004)
The source made the active and inactive calls. Rule as the data show it, for most assays here: actives have a measured EC50 and inactives only a lower limit.

What was measured:
[1] = P. falciparum Dd2 growth inhibitors, dose response, SYBR Green, cherry-picked samples (AID 1159567); type: functional, cell-based
[2] = biological target: T1, Corticotropin-releasing factor receptor 2/Corticotropin-releasing factor-binding protein (Homo sapiens, UniProt P24387+Q13324); test: Dose Response confirmation of uHTS hits for small molecule antagonists of the CRF-binding protein and CRF-R2 receptor complex.; type: functional; details: read-out: IC50_Mean
T1 sequence (Q13324 whole entry): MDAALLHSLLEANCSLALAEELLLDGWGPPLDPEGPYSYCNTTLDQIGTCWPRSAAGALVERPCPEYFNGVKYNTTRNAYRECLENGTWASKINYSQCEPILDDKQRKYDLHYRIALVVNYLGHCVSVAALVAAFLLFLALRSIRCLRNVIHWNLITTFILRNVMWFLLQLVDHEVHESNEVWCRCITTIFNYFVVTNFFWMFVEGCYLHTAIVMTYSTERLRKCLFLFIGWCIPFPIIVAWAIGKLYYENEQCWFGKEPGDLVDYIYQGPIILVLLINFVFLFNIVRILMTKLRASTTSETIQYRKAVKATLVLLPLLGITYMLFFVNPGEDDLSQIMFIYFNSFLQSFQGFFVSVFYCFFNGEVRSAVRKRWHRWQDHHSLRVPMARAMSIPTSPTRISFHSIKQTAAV
T1 sequence (P24387 whole entry): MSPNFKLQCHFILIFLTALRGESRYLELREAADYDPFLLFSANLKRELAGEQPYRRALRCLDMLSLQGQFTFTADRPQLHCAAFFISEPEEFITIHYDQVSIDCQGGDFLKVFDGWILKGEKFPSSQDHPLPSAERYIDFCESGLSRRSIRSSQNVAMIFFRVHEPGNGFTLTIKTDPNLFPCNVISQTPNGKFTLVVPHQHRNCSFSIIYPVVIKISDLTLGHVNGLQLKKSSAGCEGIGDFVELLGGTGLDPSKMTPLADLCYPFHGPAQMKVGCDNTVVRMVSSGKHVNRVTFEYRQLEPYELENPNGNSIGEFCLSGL

[3] = biological target: T1, Corticotropin-releasing factor receptor 2/Corticotropin-releasing factor-binding protein; test: activators of CRF receptor 2 with binding protein – uHTS hits, confirmation (AID 602473); type: functional; details: read-out: EC50_Mean
[4] = biological target: T2, Rac GTPase-activating protein 1 (Homo sapiens, UniProt Q9H0H5); test: MgcRacGAP GTPase-activating activity inhibitors, confirmation, biochemical, ADP Hunter fluorescence, primary and confirmatory (AID 624330); type: functional
T2 sequence (Q9H0H5 whole entry): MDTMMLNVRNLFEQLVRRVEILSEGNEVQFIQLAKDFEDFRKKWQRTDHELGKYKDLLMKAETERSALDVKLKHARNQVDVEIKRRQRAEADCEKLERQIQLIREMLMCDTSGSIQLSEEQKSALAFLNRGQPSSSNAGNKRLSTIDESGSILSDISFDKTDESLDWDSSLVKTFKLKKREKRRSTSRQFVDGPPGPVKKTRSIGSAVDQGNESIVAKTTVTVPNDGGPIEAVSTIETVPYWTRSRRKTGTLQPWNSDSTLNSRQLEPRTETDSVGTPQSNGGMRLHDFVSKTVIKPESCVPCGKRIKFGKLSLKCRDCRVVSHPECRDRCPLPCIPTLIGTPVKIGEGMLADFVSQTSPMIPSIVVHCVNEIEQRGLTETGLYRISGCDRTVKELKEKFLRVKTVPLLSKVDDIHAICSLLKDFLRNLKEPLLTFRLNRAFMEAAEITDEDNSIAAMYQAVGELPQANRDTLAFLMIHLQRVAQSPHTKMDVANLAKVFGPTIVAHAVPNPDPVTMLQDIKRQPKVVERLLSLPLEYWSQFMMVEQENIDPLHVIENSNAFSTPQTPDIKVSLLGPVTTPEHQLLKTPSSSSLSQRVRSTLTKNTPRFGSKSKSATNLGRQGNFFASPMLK

[5] = NIH-3T3 fibroblast cytotoxicity, dose response, cytotoxicity control, cell-based, fluorescence, Alamar Blue, secondary assay (AID 2327); type: functional;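 also: NIH-3T3 mouse fibroblasts cultured with fluconazole at 8 µg/mL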
[6] = C. albicans growth with fluconazole, confirmation, fluorescence, retest (AID 2467); type: functional, cell-based
[7] = Luminescence Cell-Based Dose Retest to Confirm Inhibitors of Cancer Stem Cells. [Related pubchem assays (depositor defined):AID2717, AID2721]; type: functional; details: Homo sapiens
Cytochrome P450 1A2 = biological target: T3, Cytochrome P450 1A2 (Homo sapiens, UniProt P05177);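 also: PubChem cytochrome P450 panel assay, CYP1A2 panel member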
T3 sequence (P05177 whole entry): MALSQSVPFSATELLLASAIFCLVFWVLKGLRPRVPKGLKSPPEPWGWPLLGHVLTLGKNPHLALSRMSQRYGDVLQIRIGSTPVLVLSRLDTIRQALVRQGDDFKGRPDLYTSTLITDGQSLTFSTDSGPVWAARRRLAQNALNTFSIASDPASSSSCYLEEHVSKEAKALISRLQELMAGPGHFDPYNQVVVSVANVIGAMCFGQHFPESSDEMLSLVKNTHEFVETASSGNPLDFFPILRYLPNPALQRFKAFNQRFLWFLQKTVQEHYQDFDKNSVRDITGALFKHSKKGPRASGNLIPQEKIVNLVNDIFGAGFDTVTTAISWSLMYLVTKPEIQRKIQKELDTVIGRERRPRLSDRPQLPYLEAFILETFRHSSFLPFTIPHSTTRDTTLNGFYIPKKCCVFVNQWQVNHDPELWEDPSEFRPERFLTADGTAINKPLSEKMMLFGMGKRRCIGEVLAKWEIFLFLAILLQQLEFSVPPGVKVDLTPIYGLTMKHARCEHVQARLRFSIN

[8] = inhibitors of intracellular T. cruzi replication, confirmation, NIH3T3 host cells, beta-gal luminescence (AID 2044); type: functional, cell-based;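 also: intracellular parasites grown in NIH/3T3 mouse fibroblasts as host cells; luminescent beta-galactosidase reporter signal from transgenic T. cruzi replicating inside host cells; inhibitors lower the luminescence signal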
[9] = cytotoxicity toward NIH3T3 fibroblasts, dose response, counter-screen, cell-based, ATP luminescence, mouse fibroblasts (AID 2010); type: functional;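 also: cells exposed to compound for about 90 hours before reading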
H4 = test: Luminescence Cell-Based Dose Response HTS to Identify Activators of 5'UTR Stem-Loop Driven Prion Protein mRNA Translation in H4 Neuroglioblastoma Cells. [Related pubchem assays: 1829 (Project Summary), 1814 (Primary HTS)]; type: functional; details: Homo sapiens
Cytochrome P450 2C9 = Cytochrome P450 2C9 (Homo sapiens, UniProt P11712)
Cytochrome P450 2C9, sequence (P11712 whole entry): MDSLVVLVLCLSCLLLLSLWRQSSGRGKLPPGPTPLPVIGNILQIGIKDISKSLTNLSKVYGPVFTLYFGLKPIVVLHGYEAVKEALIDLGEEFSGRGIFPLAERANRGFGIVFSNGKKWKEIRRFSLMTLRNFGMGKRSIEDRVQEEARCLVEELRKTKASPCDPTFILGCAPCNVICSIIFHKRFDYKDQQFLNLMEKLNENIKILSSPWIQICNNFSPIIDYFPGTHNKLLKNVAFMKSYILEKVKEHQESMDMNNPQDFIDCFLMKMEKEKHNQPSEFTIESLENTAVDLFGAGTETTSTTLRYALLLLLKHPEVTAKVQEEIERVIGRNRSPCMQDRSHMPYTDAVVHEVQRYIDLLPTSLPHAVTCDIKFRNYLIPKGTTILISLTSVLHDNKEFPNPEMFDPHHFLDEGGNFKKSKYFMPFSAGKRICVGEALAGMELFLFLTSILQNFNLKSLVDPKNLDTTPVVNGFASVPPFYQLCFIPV

[10] = test system: Streptococcus sp. 'group A'; test: growth inhibition of control SK(-) GAS strain, dose response, counter-screen for streptokinase expression inhibitor project, luminescence, kanamycin, BacTiterGlo, confirmation (AID 1900); type: functional, organism-based
Streptococcus = test: Group A Streptococcus viability loss, dose response, counter-screen for streptokinase expression inhibitor project, luminescence, BacTiterGlo (AID 1915); type: functional, organism-based;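 also: potency for reduction of bacterial viability or growth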
INS1 = test: beta cell apoptosis inhibitors, cytokine rescue, dose response, luminescence, retest (AID 449756); type: functional, cell-based; details: Rattus norvegicus;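 also: cell death triggered by IL-1 beta plus TNF-alpha plus IFN-gamma mixture; protective hits raise ATP signal compared with cytokine alone wells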

Cc1ccc(-c2ccc([C@H]3[C@@H]4CN(S(=O)(=O)c5ccccc5)C[C@H]3N4)cc2)cc1
AC50 [1]: 3.66 µM (active)

COc1ccc(C#Cc2c(-c3ccccc3)n(-c3ccccc3)c3ccc(CO)cc23)cc1
IC50 [2]: > 47.1 µM (inactive) | EC50 [3]: > 53 µM (inactive)

O=C(N/N=C/c1ccc(O)c2ccccc12)c1cccnc1
IC50 [4]: 127 µM (active)

c1cc2c(cc1CNc1ccc(N3CCOCC3)cc1)OCO2
IC50 [4]: 6.57 µM (active)

CC1(C)CC(=O)C2=C(C1)OC1=C(C(=O)CC(C)(C)C1)C2c1cc([N+](=O)[O-])cc([N+](=O)[O-])c1O
EC50 [5]: > 160 µM (inactive) | EC50 [6]: 0.221 µM (active)

CCCc1ccc(C(=O)NNc2ccc(F)cc2)cc1
EC50 [5]: 13 µM (inconclusive) | EC50 [6]: > 38 µM (not active) | AC50 [7]: 1.03 µM (active)

O=C(O)C[C@@H](C(=O)O)c1ccccc1[N+](=O)[O-]
AC50 (Cytochrome P450 1A2): 0.794 µM (inconclusive)

COc1cc(C=C2CN(C)C(=O)C2=O)ccc1O
IC50 [4]: 19.6 µM (active)

Cc1ccc(-c2ccc3c(c2)O[C@@H](CN(C)Cc2cccnc2)[C@@H](C)CN([C@@H](C)CO)S3(=O)=O)cc1
AC50 [1]: 5.62 µM (active)

CCN(CC)c1ccc(/C=N/NC(=O)OC)c(O)c1
IC50 [4]: 66 µM (active)

CCN(CC)CCN(C(=O)c1ccc2ccccc2c1)c1nc2ccc(OC)cc2s1
EC50 [5]: > 160 µM (inactive) | EC50 [6]: > 38 µM (not active)

Cc1ccc(S(=O)(=O)c2nc(S(C)(=O)=O)sc2N2CCOCC2)cc1
IC50 [2]: > 47.1 µM (inactive) | EC50 [3]: > 53 µM (inactive)

O=C(NNC(=O)c1ccccc1C(=O)O)c1ccc(O)cc1
IC50 [2]: > 47.1 µM (inactive) | EC50 [3]: > 53 µM (inactive)

Cc1c(C(=O)O)sc(S(=O)(=O)N2CCN(C(=O)Cc3ccc(F)cc3)CC2)c1C(=O)O
IC50 [2]: > 47.1 µM (inactive) | EC50 [3]: > 53 µM (inactive)

COc1cccc(C#Cc2ccc([C@H]3[C@@H](C#N)N(C(=O)C4CCCC4)[C@@H]3CO)cc2)c1
AC50 [1]: 5.62 µM (active)

CS(=O)(=O)Oc1ccc(Br)c2cccnc12
IC50 [2]: > 47.1 µM (inactive) | EC50 [3]: > 53 µM (inactive)

COc1ccc(C(=O)N2CCC3(CC2)CN(C(=O)Nc2ccccc2)C3)cc1
AC50 (Cytochrome P450 1A2): 25.1 µM (inconclusive)

CCC(=O)N1CC2(C1)[C@@H](c1ccc(-c3cccc(OC)c3)cc1)[C@@H](CO)N2C(C)=O
AC50 [1]: 22.2 µM (active)

COc1cc(OC)c(NC(S)=NCc2ccccc2)cc1Cl
EC50 [5]: > 160 µM (inactive) | EC50 [6]: > 38 µM (not active)

COc1cccc(-c2ccc3c(c2)[C@H]2[C@H](CCN2C(=O)C2CCCC2)[C@@H](CO)N3)c1
AC50 [1]: 6.77 µM (active)

CO[C@H]1CN(C)C(=O)c2cc(NC(=O)c3nc4ccccc4s3)ccc2OC[C@@H](C)NC[C@@H]1C
AC50 [1]: 7.49 µM (active)

COc1ccc(S(=O)(=O)N(C)C[C@@H]2OCc3ccccc3-c3c(n(C)c4ccccc34)C(=O)N([C@H](C)CO)C[C@H]2C)cc1
AC50 [1]: 4.65 µM (active)

Cc1noc(C)c1S(=O)(=O)N1CCC(C(=O)N2CCN(c3ccc(Cl)cc3)CC2)CC1
IC50 [2]: > 47.1 µM (inactive) | EC50 [3]: > 53 µM (inactive)

CCN1C(=O)CC2CCCC1C2 (configuration not stated)
IC50 [2]: > 47.1 µM (inactive) | EC50 [3]: > 53 µM (inactive)

c1ccc(COc2ccccc2CNC23CC4CC(CC(C4)C2)C3)cc1
EC50 [5]: > 160 µM (inactive) | EC50 [6]: > 38 µM (not active) | EC50 [8]: 2.36 µM (active) | EC50 [9]: > 60 µM (not active)

CCOc1ccc(C(CCc2ccccc2)NC(=O)c2ccccc2OC)cc1OCC (configuration not stated)
IC50 [2]: > 47.1 µM (inactive) | EC50 [3]: > 53 µM (inactive)

COc1ccc(/C=C2\CCn3c2nc2ccccc2c3=O)cc1OC
EC50 (H4): 1.08 µM (active)

Cc1ccc(-c2nn3c(O)c4c(nc3c2C)CCCC4)cc1
AC50 (Cytochrome P450 2C9): 6.31 µM (inconclusive)

COc1cccc(NC(=O)Nc2ccc3c(c2)C(=O)N(C)C[C@@H](OC)[C@H](C)CN[C@@H](C)CO3)c1
AC50 [1]: 22.8 µM (active)

COc1cc(OC)c2cc(C(=O)N/N=C/c3ccccc3O)[nH]c2c1
EC50 [5]: 23.1 µM (active) | EC50 [10]: 0.781 µM (active) | EC50 [6]: 1.47 µM (active) | EC50 (Streptococcus): 7.68 µM (active) | AC50 (INS1): 3.06 µM (active)

COc1ccc2c(c1)c(CC(=O)O)c(C)n2Cc1ccc(Cl)cc1
AC50 (Cytochrome P450 2C9): 12.6 µM (inconclusive)

Cc1cccc(NC(=O)NNC(=O)c2cc3ccccc3cc2O)c1C
EC50 [5]: 80.6 µM (active) | EC50 [6]: > 38 µM (not active)

O=C1N=C(N2CCOCC2)S/C1=C1\C(=O)N(Cc2ccccc2)c2ccccc21
EC50 (H4): 45 µM (inconclusive)

CC(C)NC1=NN=C(c2ccc(Cl)c(Cl)c2)CS1
EC50 (H4): 0.597 µM (active)

CC1CCCC(N2CCN(C(=O)c3ccc([N+](=O)[O-])cc3)CC2)C1 (configuration not stated)
IC50 [4]: 167 µM (active)

CSc1cnc2c(N)nc(N(C)C)nc2n1
EC50 [5]: > 160 µM (inconclusive) | EC50 [6]: 2.63 µM (active)

CN(C)c1ccc(/C=C2/C(=O)NC(=O)N(Cc3ccco3)C2=O)cc1
IC50 [4]: 142 µM (active)

COc1ccc(CN2CCN(Cc3ccccc3OC)CC2)cc1
IC50 [4]: 74.7 µM (active)

O=C(CCCOc1ccc(Cl)cc1)Nc1cccc(C(=O)O)c1
IC50 [2]: > 47.1 µM (inactive) | EC50 [3]: > 53 µM (inactive)
